Laboratory results published in ChEMBL document CHEMBL1201862, “PubChem BioAssay data set” (2004).
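Five compound concentrations were applied to cells in 96-well plates for 48 hours; endpoints were derived by simple linear interpolation of the resulting dose-response curve. GI50: concentration for 50% inhibition of growth.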 Calls of active or inactive are those of the source. No stated cut-off is given here; in the data, active = GI50 up to about 1.1 µM and inactive = higher.

Key:
Assay in all cases: DTP human tumour cell line panel, 48 h
NCI-H460 = system: NCI-H460
U-251 = system: U-251
EKVX = system: EKVX
TK-10 = system: TK-10
NCI-H226 = system: NCI-H226
Malme-3M = system: Malme-3M
SW-620 = system: SW-620
MCF7 = system: MCF7
IGROV-1 = system: IGROV-1
UACC-62 = system: UACC-62
UACC-257 = system: UACC-257
COLO 205 = system: COLO 205
SN12C = system: SN12C
SK-MEL-5 = system: SK-MEL-5
SK-MEL-28 = system: SK-MEL-28
HCT-116 = system: HCT-116
T47D = system: T47D
OVCAR-5 = system: OVCAR-5
SF-539 = system: SF-539
MDA-N = system: MDA-N

| SMILES | GI50 (NCI-H460) | GI50 (U-251) | GI50 (EKVX) | GI50 (TK-10) | GI50 (NCI-H226) | GI50 (Malme-3M) | GI50 (SW-620) | GI50 (MCF7) | GI50 (IGROV-1) | GI50 (UACC-62) | GI50 (UACC-257) | GI50 (COLO 205) | GI50 (SN12C) | GI50 (SK-MEL-5) | GI50 (SK-MEL-28) | GI50 (HCT-116) | GI50 (T47D) | GI50 (OVCAR-5) | GI50 (SF-539) | GI50 (MDA-N) |
| --- | --- | --- | --- | --- | --- | --- | --- | --- | --- | --- | --- | --- | --- | --- | --- | --- | --- | --- | --- | --- |
| Cc1nc(O)c(Cc2ccccc2O)c(-c2ccccc2)n1 | > 100 µM (inactive) | > 100 µM (inactive) | 19.1 µM (inactive) | > 100 µM (inactive) | > 100 µM (inactive) | > 100 µM (inactive) | > 100 µM (inactive) | > 100 µM (inactive) | > 100 µM (inactive) | > 100 µM (inactive) | > 100 µM (inactive) | > 100 µM (inactive) | > 100 µM (inactive) | > 100 µM (inactive) | > 100 µM (inactive) | > 100 µM (inactive) | 78.5 µM (inactive) | > 100 µM (inactive) | > 100 µM (inactive) | > 100 µM (inactive) |
| CC1C(=O)C(C)C(c2ccccc2)N(N=O)C1c1ccccc1 (stereo not given) | > 592 µM (inactive) | 60.1 µM (inactive) | > 100 µM (inactive) | 207 µM (inactive) | > 69.5 µM (inactive) | > 318 µM (inactive) | > 100 µM (inactive) | > 100 µM (inactive) | > 72.9 µM (inactive) | > 475 µM (inactive) | > 548 µM (inactive) | > 553 µM (inactive) | 400 µM (inactive) | > 410 µM (inactive) | > 409 µM (inactive) | 127 µM (inactive) | 60.8 µM (inactive) | > 527 µM (inactive) | 86.5 µM (inactive) | 134 µM (inactive) |
| CC1(C)CCC[C@@]2(C)C1C(=O)[C@@H]1O[C@]1(C)[C@@H]2CO (stereo not given in full) | 13.5 µM (inactive) | 14.8 µM (inactive) | 31.6 µM (inactive) | 80 µM (inactive) | 33.3 µM (inactive) | 37.9 µM (inactive) | 24.7 µM (inactive) | > 100 µM (inactive) | 45.8 µM (inactive) | 37.2 µM (inactive) | 43.8 µM (inactive) | 18.4 µM (inactive) | 25.5 µM (inactive) | 46.2 µM (inactive) | 13.7 µM (inactive) | 19.7 µM (inactive) | 26.7 µM (inactive) | > 100 µM (inactive) | 37.8 µM (inactive) | 23.5 µM (inactive) |
| O=C1N[C@@H](c2c[nH]c3ccc(Br)cc23)C(=O)N[C@H]1c1c[nH]c2ccc(Br)cc12 | 5.73 µM (inactive) | 9.35 µM (inactive) | 13 µM (inactive) | 4.06 µM (inactive) | 10.8 µM (inactive) | 14.4 µM (inactive) | 10.9 µM (inactive) | 12.6 µM (inactive) | 10.9 µM (inactive) | 7.26 µM (inactive) | 12 µM (inactive) | 7.21 µM (inactive) | 12.4 µM (inactive) | 5.38 µM (inactive) | 15.1 µM (inactive) | 7.93 µM (inactive) | 10.8 µM (inactive) | 13.9 µM (inactive) | 5.21 µM (inactive) | 8.17 µM (inactive) |
| CCCCCCCC/C=C\CCCCCCC/C=C1\C[C@](/C=C/C(=O)OC)(CO)OC1=O | 3.44 µM (inactive) | 1.85 µM (inactive) | 10.4 µM (inactive) | 1.93 µM (inactive) | 2.61 µM (inactive) | 1.4 µM (inactive) | 1.78 µM (inactive) | 3.28 µM (inactive) | 2.75 µM (inactive) | 6.85 µM (inactive) | 12.6 µM (inactive) | 2.02 µM (inactive) | 1.56 µM (inactive) | 3.31 µM (inactive) | 1.6 µM (inactive) | 2.16 µM (inactive) | 3.27 µM (inactive) | 5.98 µM (inactive) | 1.78 µM (inactive) | 0.834 µM (active) |
| NC(=O)c1ccc(NCC2=CC(=O)C=CC2=O)cc1 | > 100 µM (inactive) | 22 µM (inactive) | 16.9 µM (inactive) | 17.7 µM (inactive) | > 100 µM (inactive) | 19.5 µM (inactive) | 21.4 µM (inactive) | 23 µM (inactive) | 20.8 µM (inactive) | 20.4 µM (inactive) | 21.1 µM (inactive) | 19.1 µM (inactive) | 20.2 µM (inactive) | 15.5 µM (inactive) | 20.5 µM (inactive) | 18.7 µM (inactive) | 28.1 µM (inactive) | 23 µM (inactive) | 17.1 µM (inactive) | 17.3 µM (inactive) |
| CCC1(CC)SCc2nc3ccccc3n21 | 36.9 µM (inactive) | 37.2 µM (inactive) | 27.3 µM (inactive) | 38.8 µM (inactive) | 33.4 µM (inactive) | 22.4 µM (inactive) | 58.6 µM (inactive) | 30.2 µM (inactive) | 34.2 µM (inactive) | 39.4 µM (inactive) | 27.4 µM (inactive) | 19.8 µM (inactive) | 49.8 µM (inactive) | 20.9 µM (inactive) | 37.2 µM (inactive) | 23.9 µM (inactive) | 49.7 µM (inactive) | 45.6 µM (inactive) | 54.3 µM (inactive) | 34.9 µM (inactive) |
| CC(=O)N(CN1C(=O)CCC1C(=O)O)c1ccccc1 (stereo not given) | > 100 µM (inactive) | > 100 µM (inactive) | > 53.8 µM (inactive) | > 53.5 µM (inactive) | > 52.7 µM (inactive) | 29.8 µM (inactive) | > 100 µM (inactive) | > 56.8 µM (inactive) | > 50.4 µM (inactive) | > 51.9 µM (inactive) | > 54.2 µM (inactive) | > 58.6 µM (inactive) | > 57.7 µM (inactive) | > 58.7 µM (inactive) | > 100 µM (inactive) | > 56 µM (inactive) | > 57.3 µM (inactive) | > 55.6 µM (inactive) | > 50.6 µM (inactive) | > 58.9 µM (inactive) |
| CCc1cccc(C(C)C)c1NC1=C([n+]2ccc(C)cc2)C(=O)c2ccccc2C1=O.[O-][Cl+3]([O-])([O-])[O-] | 0.564 µM (active) | 0.887 µM (active) | 0.817 µM (active) | 7.87 µM (inactive) | 1.39 µM (inactive) | 2.12 µM (inactive) | 0.861 µM (active) | 0.27 µM (active) | 0.284 µM (active) | 0.822 µM (active) | 0.993 µM (active) | 1.1 µM (active) | 0.475 µM (active) | 1.14 µM (inactive) | 7.64 µM (inactive) | 3.21 µM (inactive) | 0.13 µM (active) | 5.3 µM (inactive) | 0.895 µM (active) | 1.65 µM (inactive) |
| O=C(O)CC/C(=N\Nc1nsc2ccccc12)c1ccc(Cl)cc1 | 28.4 µM (inactive) | 18 µM (inactive) | 69.5 µM (inactive) | 46.9 µM (inactive) | > 100 µM (inactive) | 45 µM (inactive) | 28.6 µM (inactive) | 5.75 µM (inactive) | 30.1 µM (inactive) | 19.8 µM (inactive) | 25.5 µM (inactive) | 43.4 µM (inactive) | 26 µM (inactive) | 22.2 µM (inactive) | 17.5 µM (inactive) | 17.9 µM (inactive) | 31.2 µM (inactive) | 54.5 µM (inactive) | 31.5 µM (inactive) | 31.3 µM (inactive) |
| CCCCCCCCCCCCCCCCCCN(C)CC(COC)OP(=O)([O-])OCC[N+](C)(C)C (stereo not given) | 0.851 µM (active) | 0.891 µM (active) | 12.5 µM (inactive) | 1.03 µM (active) | 4.32 µM (inactive) | 11.7 µM (inactive) | 3.15 µM (inactive) | 3.97 µM (inactive) | 0.532 µM (active) | 3.05 µM (inactive) | 9.08 µM (inactive) | 1.21 µM (inactive) | 3.3 µM (inactive) | 9.44 µM (inactive) | 15.7 µM (inactive) | 1.66 µM (inactive) | 14 µM (inactive) | 1.72 µM (inactive) | 3.84 µM (inactive) | 4.2 µM (inactive) |
| COC(=O)NC(Cc1ccccc1)NC(=O)OC(C)(C)C (stereo not given) | > 100 µM (inactive) | > 100 µM (inactive) | > 100 µM (inactive) | > 100 µM (inactive) | > 100 µM (inactive) | > 100 µM (inactive) | > 100 µM (inactive) | > 100 µM (inactive) | > 100 µM (inactive) | > 100 µM (inactive) | > 100 µM (inactive) | > 100 µM (inactive) | > 100 µM (inactive) | > 100 µM (inactive) | > 100 µM (inactive) | > 100 µM (inactive) | > 100 µM (inactive) | > 100 µM (inactive) | > 100 µM (inactive) | > 100 µM (inactive) |
| COc1cccc(C(NC2=NCCC=N2)c2cc3c(cc2O)OCO3)c1O (stereo not given) | 29.8 µM (inactive) | 17.7 µM (inactive) | > 100 µM (inactive) | 76.9 µM (inactive) | 43.5 µM (inactive) | 38.1 µM (inactive) | 20.4 µM (inactive) | 18 µM (inactive) | 29.4 µM (inactive) | 23.3 µM (inactive) | 34.4 µM (inactive) | 40.1 µM (inactive) | 19.6 µM (inactive) | 38.8 µM (inactive) | 32.7 µM (inactive) | 24.1 µM (inactive) | 25.5 µM (inactive) | 36.6 µM (inactive) | 25.8 µM (inactive) | 27.2 µM (inactive) |
| C=C(C)C(O)C(O)c1c(OC)ccc2ccc(=O)oc12 (stereo not given) | > 100 µM (inactive) | > 100 µM (inactive) | > 100 µM (inactive) | > 100 µM (inactive) | > 100 µM (inactive) | > 100 µM (inactive) | > 100 µM (inactive) | > 100 µM (inactive) | > 100 µM (inactive) | > 100 µM (inactive) | > 100 µM (inactive) | > 100 µM (inactive) | > 100 µM (inactive) | > 100 µM (inactive) | > 100 µM (inactive) | > 100 µM (inactive) | > 100 µM (inactive) | > 100 µM (inactive) | > 100 µM (inactive) | > 100 µM (inactive) |
